Source: ChEMBL document CHEMBL1133162, “Tyrosine kinase inhibitors. 17. Irreversible inhibitors of the epidermal growth factor receptor: 4-(phenylamino)quinazoline- and 4-(phenylamino)pyrido[3,2-d]pyrimidine-6-acrylamides bearing additional solubilizing functions” (J Med Chem, 2000)
pIC50: −log10 of the molar value. Calls of active or inactive are those of the source. The rule behind the calls is not given here.

What was measured:
[1] = target: Receptor tyrosine-protein kinase erbB-2 (Homo sapiens, UniProt P04626)
Description: Inhibition of autophosphorylation of ERBB2 receptor kinase in MDA-MB 453 cells

[2] = target: T1, Epidermal growth factor receptor (Homo sapiens, UniProt P00533)
Description: Inhibition of phosphorylation of a polyglutamic acid/tyrosine random copolymer by EGFR enzyme prepared from human A431 carcinoma cell vesicles by immunoaffinity chromatography

[3] = target: T1, Epidermal growth factor receptor; remark: listed apart in the source
Description: Inhibition of EGF-stimulated autophosphorylation of EGFR enzyme in A431 cells detected by immunoblotting

A-431 [4] = assay: In vivo activity against A431 xenografts in mice, ratio of treated/control A431 cell tumor mass at 20 mg/kg peroral dose for 10-24 days; format: functional; conditions: route oral
Caco-2 [5] = assay: Efflux in Caco-2 cells; no; format: functional, cell-based; conditions: Homo sapiens
A-431 [6] = assay: In vivo activity against A431 xenografts in mice, difference in days for treated(T) and control(C) tumors to reach 750 mg at 20 mg/kg peroral dose for 10-24 days; format: functional; conditions: route oral
Caco-2 [7] = assay: Secretory Transport in Caco-2 cells in comparison to metoprolol; format: functional, cell-based; parameters: unit not given here; conditions: Homo sapiens
Caco-2 [8] = assay: Absorptive transport in Caco-2 cells in comparison to metoprolol; format: functional, cell-based; conditions: Homo sapiens
A-431 [9] = assay: In vivo activity against A431 xenografts in mice, ratio of treated/control tumor mass at 20 mg/kg peroral dose for 15-19 days; conditions: route oral
Caco-2 [10] = assay: permeability in Caco-2 cells; no; format: functional, cell-based; conditions: Homo sapiens
A-431 [11] = assay: In vivo activity against A431 xenografts in mice, difference in days for treated(T) and control(C) tumors to reach 750 mg at 10 mg/kg intraperitoneal dose for 13-26 days
A-431 [12] = assay: In vivo activity against A431 xenografts in mice after 60 mg/kg peroral dose; format: functional; conditions: route oral
Mus musculus [13] = assay: In vivo activity against xenografts in mice, ratio of treated/control tumor mass at 10 mg/kg peroral dose for 10-24 days; format: functional; conditions: route oral
Mus musculus [14] = assay: In vivo activity against xenografts in mice, ratio of treated/control tumor mass at 10 mg/kg intraperitoneal dose
A-431 [15] = assay: In vivo activity against A431 xenografts in mice, difference in days for treated(T) and control(C) tumors to reach 750 mg at 60 mg/kg peroral dose for 10-24 days; format: functional; conditions: route oral
Caco-2 [16] = assay: Efflux in Caco-2 cells; yes; format: functional, cell-based; conditions: Homo sapiens
Caco-2 [17] = assay: permeability in Caco-2 cells; yes; format: functional, cell-based; conditions: Homo sapiens
A-431 [18] = assay: In vivo activity against A431 xenografts in mice, ratio of treated/control tumor mass at 5 mg/kg peroral dose for 10-24 days; format: functional; conditions: route oral
A-431 [19] = assay: In vivo activity against A431 xenografts in mice, ratio of treated/control tumor mass at 18 mg/kg peroral dose for 10-24 days; conditions: route oral
Caco-2 [20] = assay: Absorptive transport in Caco-2 cells in comparison to metoprolol.; format: functional, cell-based; conditions: Homo sapiens

T1 sequence (P00533 whole entry): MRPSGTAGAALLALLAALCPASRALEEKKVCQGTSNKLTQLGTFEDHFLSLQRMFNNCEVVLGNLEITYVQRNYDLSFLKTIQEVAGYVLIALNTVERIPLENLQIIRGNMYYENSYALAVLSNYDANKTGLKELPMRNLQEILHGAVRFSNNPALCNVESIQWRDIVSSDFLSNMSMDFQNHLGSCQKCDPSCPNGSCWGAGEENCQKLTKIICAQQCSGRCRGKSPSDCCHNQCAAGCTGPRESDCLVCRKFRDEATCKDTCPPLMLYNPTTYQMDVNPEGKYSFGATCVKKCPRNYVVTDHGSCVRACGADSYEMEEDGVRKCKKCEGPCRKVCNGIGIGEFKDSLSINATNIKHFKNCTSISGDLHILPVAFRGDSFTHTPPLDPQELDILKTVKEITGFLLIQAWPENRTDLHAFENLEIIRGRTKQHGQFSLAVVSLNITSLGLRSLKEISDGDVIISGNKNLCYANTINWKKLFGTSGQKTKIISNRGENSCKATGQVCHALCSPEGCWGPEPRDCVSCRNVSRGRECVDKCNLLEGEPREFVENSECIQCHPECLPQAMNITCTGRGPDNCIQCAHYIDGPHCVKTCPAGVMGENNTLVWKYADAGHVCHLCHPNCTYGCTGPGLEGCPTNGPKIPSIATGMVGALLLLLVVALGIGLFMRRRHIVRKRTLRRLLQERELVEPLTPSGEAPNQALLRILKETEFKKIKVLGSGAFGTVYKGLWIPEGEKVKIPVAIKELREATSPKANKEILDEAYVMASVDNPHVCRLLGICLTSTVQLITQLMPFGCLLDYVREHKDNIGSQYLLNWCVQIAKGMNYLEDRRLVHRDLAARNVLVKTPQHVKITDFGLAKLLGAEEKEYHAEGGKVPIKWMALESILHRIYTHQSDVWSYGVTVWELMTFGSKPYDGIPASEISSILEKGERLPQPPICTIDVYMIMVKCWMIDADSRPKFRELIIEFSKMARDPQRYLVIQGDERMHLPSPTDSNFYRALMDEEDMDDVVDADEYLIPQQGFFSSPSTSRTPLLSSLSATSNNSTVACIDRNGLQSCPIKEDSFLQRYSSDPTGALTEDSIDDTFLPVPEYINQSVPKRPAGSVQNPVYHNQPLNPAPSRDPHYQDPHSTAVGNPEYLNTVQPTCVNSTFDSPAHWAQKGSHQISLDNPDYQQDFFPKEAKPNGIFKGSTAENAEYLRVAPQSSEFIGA
Sequence of Receptor tyrosine-protein kinase erbB-2 (P04626 whole entry): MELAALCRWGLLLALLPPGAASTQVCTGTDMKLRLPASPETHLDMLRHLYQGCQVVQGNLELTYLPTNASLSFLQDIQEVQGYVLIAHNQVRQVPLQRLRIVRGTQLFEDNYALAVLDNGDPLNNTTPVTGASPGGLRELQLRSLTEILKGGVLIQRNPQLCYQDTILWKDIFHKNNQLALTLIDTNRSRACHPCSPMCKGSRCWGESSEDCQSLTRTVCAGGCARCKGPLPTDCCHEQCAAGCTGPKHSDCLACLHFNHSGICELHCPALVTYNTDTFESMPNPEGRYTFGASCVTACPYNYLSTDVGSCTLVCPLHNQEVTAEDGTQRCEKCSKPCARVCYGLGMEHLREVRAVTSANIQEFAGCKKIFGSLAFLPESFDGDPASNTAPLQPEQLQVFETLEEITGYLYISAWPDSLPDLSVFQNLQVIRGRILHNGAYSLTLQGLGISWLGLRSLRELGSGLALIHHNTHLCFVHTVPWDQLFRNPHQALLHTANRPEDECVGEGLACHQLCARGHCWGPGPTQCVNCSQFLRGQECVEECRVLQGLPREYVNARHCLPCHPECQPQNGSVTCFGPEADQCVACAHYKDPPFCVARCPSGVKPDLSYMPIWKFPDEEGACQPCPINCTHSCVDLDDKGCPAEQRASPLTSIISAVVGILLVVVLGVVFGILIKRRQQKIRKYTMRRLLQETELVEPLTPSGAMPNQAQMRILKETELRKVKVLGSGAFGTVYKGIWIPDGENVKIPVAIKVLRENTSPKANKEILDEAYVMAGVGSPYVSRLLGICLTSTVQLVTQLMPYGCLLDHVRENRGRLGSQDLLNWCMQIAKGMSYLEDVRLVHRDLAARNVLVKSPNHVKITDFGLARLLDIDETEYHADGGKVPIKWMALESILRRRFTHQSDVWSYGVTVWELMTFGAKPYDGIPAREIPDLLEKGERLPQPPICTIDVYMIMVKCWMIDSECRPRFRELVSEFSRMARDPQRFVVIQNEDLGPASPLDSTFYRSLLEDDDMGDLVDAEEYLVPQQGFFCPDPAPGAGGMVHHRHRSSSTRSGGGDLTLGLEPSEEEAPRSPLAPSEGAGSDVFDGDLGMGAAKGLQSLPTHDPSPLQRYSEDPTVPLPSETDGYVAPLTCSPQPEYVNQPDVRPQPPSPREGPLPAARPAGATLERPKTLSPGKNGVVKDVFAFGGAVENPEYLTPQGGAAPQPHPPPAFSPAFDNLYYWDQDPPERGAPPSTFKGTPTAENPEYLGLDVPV

Row | Structure (SMILES) | pIC50 [1] | pIC50 [2] | pIC50 [3] | other results
1 | C=CC(=O)Nc1cc2c(Nc3ccc(F)c(Br)c3)ncnc2cc1OCCCN1CCOCC1 | 8.09 | 8.74 | 8.33 | –
2 | C=CC(=O)Nc1nc2c(Nc3ccc(F)c(Cl)c3)ncnc2cc1OCCCN1CCOCC1 | 6.72 | 8.82 | 6.36 | T/C (A-431 [4]): 69%; Efflux (Caco-2 [5]): Impermeable; T-C (A-431 [6]): 9.3 days; Permeability (Caco-2 [7]): 81.2; Permeability (Caco-2 [8]): 59.6 ·10e6; Weight change (A-431 [9]): -0.5 g; Permeability limited (Caco-2 [10]): Impermeable
3 | C=CC(=O)Nc1nc2c(Nc3ccc(F)c(Cl)c3)ncnc2cc1OCCOC | – | 9.01 | 6.42 | –
4 | C=CC(=O)Nc1nc2c(Nc3ccc(F)c(Cl)c3)ncnc2cc1CCCCN1CCOCC1 | < 5.30 | 8.57 | 5.29 | –
5 | C=CC(=O)Nc1ccc2ncnc(Nc3ccc(CN(C)C)c(Br)c3)c2c1 | – | 7.35 | 6.38 | –
6 | C=CC(=O)Nc1ccc2ncnc(Nc3ccc(OCCN(C)C)c(Br)c3)c2c1 | – | 7.57 | 5.11 | –
7 | C=CC(=O)Nc1cc2c(Nc3cccc(Br)c3)ncnc2cc1OCCCN1CCOCC1 | 8.19 | – | – | T-C (A-431 [11]): 21.5 days; Weight change (A-431 [12]): -1.6 g; T/C (Mus musculus [13]): 0%; T/C (Mus musculus [14]): 18%; T-C (A-431 [15]): 29.8 days
8 | C=CC(=O)Nc1cc2c(Nc3cccc(C)c3)ncnc2cc1OCCCN1CCN(C)CC1 | – | 8.70 | 7.74 | –
9 | C=CC(=O)Nc1cc2c(Nc3cccc(Br)c3)ncnc2cc1SCCCN(CC)CC | – | 9.11 | 6.71 | –
10 | CC[C@]1(O)C[C@@H]2CN(CCc3c([nH]c4ccccc34)[C@@](C(=O)OC)(c3cc4c(cc3OC)N(C)[C@H]3[C@@](O)(C(=O)OC)[C@H](OC(C)=O)[C@]5(CC)C=CCN6CC[C@]43[C@@H]65)C2)C1 | – | – | – | Permeability (Caco-2 [16]): Active; Permeability (Caco-2 [8]): 1.54 ·10e6; Permeability (Caco-2 [17]): Active
11 | COCCc1ccc(OCC(O)CNC(C)C)cc1 (stereo unspecified) | – | – | – | Permeability (Caco-2 [5]): Impermeable; Permeability (Caco-2 [8]): 21.4 ·10e6; Permeability (Caco-2 [10]): Impermeable
12 | C=CC(=O)Nc1cc2c(Nc3cccc(Br)c3)ncnc2cc1OCCCCN(C)C | – | 8.41 | 8.10 | –
13 | C=CC(=O)N(C)c1nc2c(Nc3ccc(F)c(Cl)c3)ncnc2cc1OCCCN1CCOCC1 | < 6.70 | 7.70 | 7.06 | –
14 | C=CC(=O)Nc1cc2c(Nc3ccc(F)c(Cl)c3)ncnc2cc1OCCOCCCCO | – | 8.77 | – | –
15 | C=CC(=O)Nc1ccc2ncnc(Nc3cccc(C)c3)c2c1 | 7.66 | – | – | –
16 | C=CC(=O)Nc1nc2c(Nc3ccc(F)c(Cl)c3)ncnc2cc1OCCCN1CCN(C)CC1 | 6.74 | 8.18 | 6.58 | –
17 | C=CC(=O)Nc1cc2c(Nc3cccc(Br)c3)ncnc2cc1OCCCN1CCN(C)CC1 | – | 8.77 | 8.52 | –
18 | C=CC(=O)Nc1cc2c(Nc3ccc(F)c(Cl)c3)ncnc2cc1OCCCN1CCOCC1 [CANERTINIB] | – | – | – | Last therapy day (A-431 [18]): 4%; Efflux (Caco-2 [5]): Impermeable; Last therapy day (A-431 [19]): 0%; Cell permeation (Caco-2 [10]): Impermeable; Permeability (Caco-2 [20]): 49.3 ·10e6
19 | C=CC(=O)Nc1nc2c(Nc3ccc(F)c(Cl)c3)ncnc2cc1/C=C/CCN1CCOCC1 | 7.92 | 9.80 | 6.92 | –
20 | C=CC(=O)Nc1nc2c(Nc3ccc(F)c(Cl)c3)ncnc2cc1OC | 6.90 | 9.02 | 6.54 | –
